# According to US7786083B2, “Metastin derivatives and use thereof” (Takeda Pharmaceutical Company Limited, priority 2006, dated 2010):
# *1 amine or outer side, *2 acyl side, *3 side chain or, on linkers, in order; H or OH if unused. Where a SMILES comes first, the peptide text is derived from it. [ ]: non-standard residue; d: D form. Glyψ(E-CHCH)Leu = CC(C)C[C@H](/C=C/CN[*:1])C(=O)[*:2]; Glyψ(CH2S)Leu = CC(C)C[C@H](SCCN[*:1])C(=O)[*:2]; Arg(Me) = CNC(=N)NCCC[C@H](N)C(=O)O; Dap(CONH2) = NC(=O)NC[C@H](N)C(=O)O; Ala(cPr) = N[C@@H](CC1CC1)C(=O)O; Hyp = O=C(O)[C@@H]1C[C@@H](O)CN1; tBuAla = CC(C)(C)C[C@H](N)C(=O)O; Cha = N[C@@H](CC1CCCCC1)C(=O)O; Cit = NC(=O)NCCC[C@H](N)C(=O)O; Nle = CCCC[C@H](N)C(=O)O; Nva = CCC[C@H](N)C(=O)O; Aib = CC(C)(N)C(=O)O
# Test system: metastin receptors
# Test: Measurement of agonist activity by assaying changes in intracellular calcium ion level (FLIPR, Fluo-4 NW)
# Assay type: cell-based, human
# Details: specific activity of the EC50 of a test compound based on the EC50 of Metastin (45-54), metastin receptor expression CHO cells
# Method in brief: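 CHO/dhfr⁻ cells stably expressing human or rat metastin receptor, seeded 3×10^4/well for 24 h, loaded with Fluo-4 NW 30 min at 37 °C in HBSS with 0.1% BSA, 20 mM HEPES pH 7.4 and 1 mM probenecid. Compound-stimulated intracellular calcium change read on FLIPR.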
row,SMILES,Specific Activity
1,"CNC(=N)NCCC[C@H](NC(=O)[C@H](CC1CC1)NC(=O)CNC(=O)[C@H](CC1CCCCC1)NC(=O)[C@@H](NC(=O)[C@H](CC(N)=O)NC(=O)C(C)(C)NC(=O)[C@@H](Cc1ccc(O)cc1)NC(C)=O)[C@@H](C)O)C(=O)N[C@@H](Cc1c[nH]c2ccccc12)C(N)=O [Compound No. 912, des(1)-Ac-[D-Tyr2,Aib3,Thr5,Cha6,Ala(cPr)8,Arg(Me)9,Trp10]MS10] (Ac-[dY][Aib]NT[Cha]G[Ala(cPr)][Arg(Me)]W-NH2)",0.6
2,"CNC(=N)NCCC[C@H](NC(=O)[C@@H](/C=C/CNC(=O)[C@H](CC1CCCCC1)NC(=O)[C@@H](NC(=O)[C@H](CCCNC(N)=O)NC(=O)[C@@H]1C[C@@H](O)CN1C(=O)[C@@H](Cc1ccc(O)cc1)NC(C)=O)[C@@H](C)O)CC(C)C)C(=O)N[C@@H](Cc1c[nH]c2ccccc12)C(N)=O [Compound No. 914, des(1)-Ac-[D-Tyr2,Hyp3,Cit4,Thr5,Cha6,Gly7Ψ((E)CH═CH)Leu8,Arg(Me)9,Trp10]MS10] (Ac-[dY][Hyp][Cit]T[Cha][Glyψ(E-CHCH)Leu][Arg(Me)]W-NH2)",0.9
3,"CNC(=N)NCCC[C@H](NC(=O)[C@H](CC1CC1)NC(=O)CNC(=O)[C@H](Cc1ccccc1)NC(=O)[C@@H](NC(=O)[C@H](CC(N)=O)NC(=O)[C@@H]1C[C@@H](O)CN1C(=O)[C@@H](Cc1ccc(O)cc1)NC(C)=O)[C@@H](C)O)C(=O)N[C@@H](Cc1c[nH]c2ccccc12)C(N)=O [Compound No. 916, des(1)-Ac-[D-Tyr2,Hyp3,Thr5,Ala(cPr)8,Arg(Me)9,Trp10]MS10] (Ac-[dY][Hyp]NTFG[Ala(cPr)][Arg(Me)]W-NH2)",0.8
4,"CNC(=N)NCCC[C@H](NC(=O)[C@H](COC)NC(=O)CNC(=O)[C@H](Cc1ccccc1)NC(=O)[C@@H](NC(=O)[C@H](CC(N)=O)NC(=O)[C@@H]1C[C@@H](O)CN1C(=O)[C@@H](Cc1ccc(O)cc1)NC(C)=O)[C@@H](C)O)C(=O)N[C@@H](Cc1c[nH]c2ccccc12)C(N)=O [Compound No. 917, des(1)-Ac-[D-Tyr2,Hyp3,Thr5,Ser(Me)8,Arg(Me)9,Trp10]MS10] (Ac-[dY][Hyp]NTFGS(Me)[Arg(Me)]W-NH2)",0.8
5,"CCC[C@H](NC(=O)CNC(=O)[C@H](Cc1ccccc1)NC(=O)[C@@H](NC(=O)[C@H](CC(N)=O)NC(=O)[C@@H]1C[C@@H](O)CN1C(=O)[C@@H](Cc1ccc(O)cc1)NC(C)=O)[C@@H](C)O)C(=O)N[C@@H](CCCNC(=N)NC)C(=O)N[C@@H](Cc1c[nH]c2ccccc12)C(N)=O [Compound No. 918, des(1)-Ac-[D-Tyr2,Hyp3,Thr5,Nva8,Arg(Me)9,Trp10]MS10] (Ac-[dY][Hyp]NTFG[Nva][Arg(Me)]W-NH2)",0.7
6,"CNC(=N)NCCC[C@H](NC(=O)[C@H](COC)NC(=O)CNC(=O)[C@H](CC1CCCCC1)NC(=O)[C@@H](NC(=O)[C@H](CC(N)=O)NC(=O)[C@H](CCC(=O)O)NC(=O)[C@@H](Cc1ccc(O)cc1)NC(C)=O)[C@@H](C)O)C(=O)N[C@@H](Cc1c[nH]c2ccccc12)C(N)=O [Compound No. 923, des(1)-Ac-[D-Tyr2,Glu3,Thr5,Cha6,Ser(Me)8,Arg(Me)9,Trp10]MS10] (Ac-[dY]ENT[Cha]GS(Me)[Arg(Me)]W-NH2)",0.5
7,"CCC[C@H](NC(=O)CNC(=O)[C@H](CC1CCCCC1)NC(=O)[C@@H](NC(=O)[C@H](CC(N)=O)NC(=O)[C@H](CCC(=O)O)NC(=O)[C@@H](Cc1ccc(O)cc1)NC(C)=O)[C@@H](C)O)C(=O)N[C@@H](CCCNC(=N)NC)C(=O)N[C@@H](Cc1c[nH]c2ccccc12)C(N)=O [Compound No. 924, des(1)-Ac-[D-Tyr2,Glu3,Thr5,Cha6,Nva8,Arg(Me)9,Trp10]MS10] (Ac-[dY]ENT[Cha]G[Nva][Arg(Me)]W-NH2)",0.4
8,"CC(=O)N[C@H](Cc1ccc(O)cc1)C(=O)N1C[C@H](O)C[C@H]1C(=O)N[C@@H](CC(N)=O)C(=O)N[C@H](C(=O)N[C@@H](Cc1ccccc1)C(=O)NC/C=C/[C@@H](CC(C)C)C(=O)N[C@@H](CCCNC(=N)N)C(=O)N[C@@H](Cc1c[nH]c2ccccc12)C(N)=O)[C@@H](C)O [Compound No. 925, des(1)-Ac-[D-Tyr2,Hyp3,Thr5,Gly7Ψ((E)CH═CH)Leu8,Trp10]MS10] (Ac-[dY][Hyp]NTF[Glyψ(E-CHCH)Leu]RW-NH2)",0.4
9,"CC(=O)N[C@H](Cc1ccc(O)cc1)C(=O)N1C[C@H](O)C[C@H]1C(=O)N[C@@H](CNC(N)=O)C(=O)N[C@H](C(=O)N[C@@H](CC1CCCCC1)C(=O)NC/C=C/[C@@H](CC(C)C)C(=O)N[C@@H](CCCNC(=N)N)C(=O)N[C@@H](Cc1c[nH]c2ccccc12)C(N)=O)[C@@H](C)O [Compound No. 927, des(1)-Ac-[D-Tyr2,Hyp3,Alb4,Thr5,Cha6,Gly7Ψ((E)CH═CH)Leu8,Trp10]MS10] (Ac-[dY][Hyp][Dap(CONH2)]T[Cha][Glyψ(E-CHCH)Leu]RW-NH2)",0.5
10,"CNC(=N)NCCC[C@H](NC(=O)[C@H](CC(C)C)SCCNC(=O)[C@H](Cc1ccccc1)NC(=O)[C@@H](NC(=O)[C@H](CC(N)=O)NC(=O)[C@@H]1C[C@@H](O)CN1C(=O)[C@@H](Cc1ccc(O)cc1)NC(C)=O)[C@@H](C)O)C(=O)N[C@@H](Cc1c[nH]c2ccccc12)C(N)=O [Compound No. 929, des(1)-Ac-[D-Tyr2,Hyp3,Thr5,Gly7Ψ(CH2S)Leu8,Arg(Me)9,Trp10]MS10] (Ac-[dY][Hyp]NTF[Glyψ(CH2S)Leu][Arg(Me)]W-NH2)",1.2
11,"CNC(=N)NCCC[C@H](NC(=O)[C@H](CC(C)(C)C)NC(=O)CNC(=O)[C@H](CC1CCCCC1)NC(=O)[C@@H](NC(=O)[C@H](CC(N)=O)NC(=O)[C@@H]1C[C@@H](O)CN1C(=O)[C@@H](Cc1ccc(O)cc1)NC(C)=O)[C@@H](C)O)C(=O)N[C@@H](Cc1c[nH]c2ccccc12)C(N)=O [Compound No. 933, des(1)-Ac-[D-Tyr2,Hyp3,Thr5,Cha6,Leu(Me)8,Arg(Me)9,Trp10]MS10] (Ac-[dY][Hyp]NT[Cha]G[tBuAla][Arg(Me)]W-NH2)",1.4

# Continued, values first:
row,Specific Activity,SMILES
1,1.4,"CNC(=N)NCCC[C@H](NC(=O)[C@@H](/C=C/CNC(=O)[C@H](CC1CCCCC1)NC(=O)[C@@H](NC(=O)[C@H](CCC(N)=O)NC(=O)[C@@H]1C[C@@H](O)CN1C(=O)[C@@H](Cc1ccc(O)cc1)NC(C)=O)[C@@H](C)O)CC(C)C)C(=O)N[C@@H](Cc1c[nH]c2ccccc12)C(N)=O [Compound No. 913, des(1)-Ac-[D-Tyr2,Hyp3,Gln4,Thr5,Cha6,Gly7Ψ((E)CH═CH)Leu8,Arg(Me)9,Trp10]MS10] (Ac-[dY][Hyp]QT[Cha][Glyψ(E-CHCH)Leu][Arg(Me)]W-NH2)"
2,4.6,"CNC(=N)NCCC[C@H](NC(=O)[C@@H](/C=C/CNC(=O)[C@H](CC1CCCCC1)NC(=O)[C@@H](NC(=O)[C@H](CCC(=O)O)NC(=O)[C@@H]1C[C@@H](O)CN1C(=O)[C@@H](Cc1ccc(O)cc1)NC(C)=O)[C@@H](C)O)CC(C)C)C(=O)N[C@@H](Cc1c[nH]c2ccccc12)C(N)=O [Compound No. 915, des(1)-Ac-[D-Tyr2,Hyp3,Glu4,Thr5,Cha6,Gly7Ψ((E)CH═CH)Leu8,Arg(Me)9,Trp10]MS10] (Ac-[dY][Hyp]ET[Cha][Glyψ(E-CHCH)Leu][Arg(Me)]W-NH2)"
3,0.5,"CNC(=N)NCCC[C@H](NC(=O)[C@H](COC)NC(=O)CNC(=O)[C@H](CC1CCCCC1)NC(=O)[C@@H](NC(=O)[C@H](CC(N)=O)NC(=O)[C@@H]1C[C@@H](O)CN1C(=O)[C@@H](Cc1ccc(O)cc1)NC(C)=O)[C@@H](C)O)C(=O)N[C@@H](Cc1c[nH]c2ccccc12)C(N)=O [Compound No. 920, des(1)-Ac-[D-Tyr2,Hyp3,Thr5,Cha6,Ser(Me)8,Arg(Me)9,Trp10]MS10] (Ac-[dY][Hyp]NT[Cha]GS(Me)[Arg(Me)]W-NH2)"
4,0.5,"CCC[C@H](NC(=O)CNC(=O)[C@H](CC1CCCCC1)NC(=O)[C@@H](NC(=O)[C@H](CC(N)=O)NC(=O)[C@@H]1C[C@@H](O)CN1C(=O)[C@@H](Cc1ccc(O)cc1)NC(C)=O)[C@@H](C)O)C(=O)N[C@@H](CCCNC(=N)NC)C(=O)N[C@@H](Cc1c[nH]c2ccccc12)C(N)=O [Compound No. 921, des(1)-Ac-[D-Tyr2,Hyp3,Thr5,Cha6,Nva8,Arg(Me)9,Trp10]MS10] (Ac-[dY][Hyp]NT[Cha]G[Nva][Arg(Me)]W-NH2)"
5,0.6,"CC(=O)N[C@H](Cc1ccc(O)cc1)C(=O)N1C[C@H](O)C[C@H]1C(=O)N[C@@H](CC(N)=O)C(=O)N[C@H](C(=O)N[C@@H](CC1CCCCC1)C(=O)NC/C=C/[C@@H](CC(C)C)C(=O)N[C@@H](CCCNC(=N)N)C(=O)N[C@@H](Cc1c[nH]c2ccccc12)C(N)=O)[C@@H](C)O [Compound No. 926, des(1)-Ac-[D-Tyr2,Hyp3,Thr5,Cha6,Gly7Ψ((E)CH═CH)Leu8,Trp10]MS10] (Ac-[dY][Hyp]NT[Cha][Glyψ(E-CHCH)Leu]RW-NH2)"
6,1.7,"CNC(=N)NCCC[C@H](NC(=O)[C@H](CC(C)C)SCCNC(=O)[C@H](CC1CCCCC1)NC(=O)[C@@H](NC(=O)[C@H](CC(N)=O)NC(=O)[C@@H]1C[C@@H](O)CN1C(=O)[C@@H](Cc1ccc(O)cc1)NC(C)=O)[C@@H](C)O)C(=O)N[C@@H](Cc1c[nH]c2ccccc12)C(N)=O [Compound No. 931, des(1)-Ac-[D-Tyr2,Hyp3,Thr5,Cha6,Gly7Ψ(CH2S)Leu8,Arg(Me)9,Trp10]MS10] (Ac-[dY][Hyp]NT[Cha][Glyψ(CH2S)Leu][Arg(Me)]W-NH2)"
7,0.6,"CCCC[C@H](NC(=O)CNC(=O)[C@H](CC1CCCCC1)NC(=O)[C@@H](NC(=O)[C@H](CC(N)=O)NC(=O)[C@@H]1C[C@@H](O)CN1C(=O)[C@@H](Cc1ccc(O)cc1)NC(C)=O)[C@@H](C)O)C(=O)N[C@@H](CCCNC(=N)NC)C(=O)N[C@@H](Cc1c[nH]c2ccccc12)C(N)=O [Compound No. 932, des(1)-Ac-[D-Tyr2,Hyp3,Thr5,Cha6,Nle8,Arg(Me)9,Trp10]MS10] (Ac-[dY][Hyp]NT[Cha]G[Nle][Arg(Me)]W-NH2)"
